The subject of this assay is Human cancer cell lines Eca-109, AGS, BGC-823, DU145, SPC-A-1, Caco-2, LS-174T, A375, Raji, MCF-7, Bcap-37, HepG2. Description: In vitro MTT assay of inhibition of cancer cell growth. The format is cell-based. As to conditions: 12 human cancer cell lines, 48 hrs incubation, IqA 0.3-100 μg/ml, IqB 0.03-10 μg/ml, absorbance 492 nm, IC50 values calculated but not given. Here is the method:
An in vitro assay was conducted to evaluate the efficacy of IqA and IqB in inhibiting the growth of cancer cells.
Human cancer cell lines, i.e., Eca-109 (esophagus carcinoma cell line), AGS and BGC-823 (gastric adenocarcinoma cell lines), DU145 (prostate carcinoma cell line), SPC-A-1 (lung adenocarcinoma cell line), Caco-2 and LS-174T (colonic carcinoma cell lines), A375 (malignant melanoma cell line), Raji (Burkitt's lymphoma cell line), MCF-7 and Bcap-37 (breast carcinoma cell lines), HepG2 (hepatoma cell line), were purchased from the Cell Bank of Shanghai Institute of Cell Biology, Chinese Academy of Sciences, and cultured in Iscove's Modified Dulbecco's Medium (IMDM) containing 10% fetal bovine serum (FBS) in an incubator at 37° C. under 5% CO2. Cells of 70-80% confluence were trypsinized, resuspended in IMDM medium containing 10% FBS at 1×10^5 cells/ml, and seeded in 96-well plates (100 μl in each well). The plates were incubated at 37° C. under 5% CO2 overnight.
IqA and IqB were provided by Shandong Xinhua Pharmaceutical CO. Ltd. IqA and IqB stock solutions were prepared at the concentrations of 10 mg/ml and 1 mg/ml in dimethyl sulfoxide (DMSO), respectively. The IqA solution was diluted with the growth medium into a series of solutions at different concentrations. […]
150 μl of DMSO was added to each well. […] Absorbance was measured at 492 nm using a microplate reader. […]

In the case of `CCCCCC/C=C\CCCCCCCCCC1=CC(=O)C=C(OC)C1=O` [IqA, irisqinone A], the “inhibition of the proliferation of cancer cells” value is “effectively inhibited the proliferation”.
Take `CCCCCCCCCCCCCCCCCC1=CC(=O)C=C(OC)C1=O` [IqB, irisquinone B]: the “inhibition of the proliferation of cancer cells” value is reported as “effectively inhibited the proliferation”.

The values are drawn from patent US20050288379A1, “Benzoquinone compounds as anti-cancer agents” (priority 2004, published 2005).
